Experimental findings from US4374138A, “Antibacterial amide compounds, compositions, and methods of use” (Warner-Lambert Company, priority 1981, dated 1983) are described below.

Holding throughout (format): cell-based
One assay deals with Staph Aureus UC-76. Put plainly: Minimal Inhibitory Concentration, Staph Aureus UC-76. The conditions noted are these: Staphylococcus aureus, UC76.
A further assay deals with Klebs. Pneu. MGH-2. The assay is described as follows: Minimal Inhibitory Concentration, Klebs. Pneu. MGH-2.
The next assay relates to Serr. Mar. IMM-16. The assay is described as follows: Minimal Inhibitory Concentration, Serr. Mar. IMM-16.
The next assay relates to Entero C. IMM-11. The assay is described as follows: Minimal Inhibitory Concentration, Entero C. IMM-11.
The next assay concerns Pseudo. Aeru 28. Put plainly: Minimal Inhibitory Concentration, Pseudo. Aeru 28.
The next assay has as its system Pseudo. Aeru BRK. The assay is described as follows: Minimal Inhibitory Concentration, Pseudo. Aeru BRK.
The next assay concerns Pseudo. Aeru UI-18. Put plainly: Minimal Inhibitory Concentration, Pseudo. Aeru UI-18.
A further assay has as its system E. Coli Brig. Put plainly: Minimal Inhibitory Concentration, E. Coli Brig. Conditions: Escherichia coli.
The test system of another assay is E. Coli Vogel. The assay is described as follows: Minimal Inhibitory Concentration, E. Coli Vogel. Conditions: Escherichia coli.
The next assay deals with Prot. Vulg. 1810. Put plainly: Minimal Inhibitory Concentration, Prot. Vulg. 1810.

Values after ≈ are worked out from the molar mass of the structure shown.

`CCNC(=O)CNC(=O)Nc1ccc2[nH]c(=O)c(C(=O)N[C@@H](C(=O)N[C@@H]3C(=O)N4[C@@H]3SC(C)(C)[C@@H]4C(=O)O)c3ccc(O)cc3)cc2c1`: the MIC amounted to 0.8 mg/L (≈ 1.18 µM) with Staph Aureus UC-76; 12.5 mg/L (≈ 18.4 µM) with Klebs. Pneu. MGH-2; 12.5 mg/L (≈ 18.4 µM) in the assay with Serr. Mar. IMM-16; 3.1 mg/L (≈ 4.56 µM) in the assay on Entero C. IMM-11; 1.6 mg/L (≈ 2.35 µM) in the assay with Pseudo. Aeru 28; 1.6 mg/L (≈ 2.35 µM) in the assay on Pseudo. Aeru BRK. The MIC with Pseudo. Aeru UI-18 is 1.6 mg/L (≈ 2.35 µM); against E. Coli Brig, 6.3 mg/L (≈ 9.27 µM); against E. Coli Vogel it was 1.6 mg/L (≈ 2.35 µM); in the assay with Prot. Vulg. 1810, 1.6 mg/L (≈ 2.35 µM).

As for `CCNC(=O)Nc1ccc2[nH]cc(C(=O)N[C@@H](C(=O)N[C@@H]3C(=O)N4[C@@H]3SC(C)(C)[C@@H]4C(=O)O)c3ccc(O)cc3)c(=O)c2c1` [B CH3 CH2, N-[6-[[(Ethylamino)carbonyl]amino]-1,4-dihydro-4-oxo-3-quinolinylcarbonyl]amoxicillin], the MIC stood at 0.8 mg/L (≈ 1.28 µM) in the assay on Staph Aureus UC-76; 3.1 mg/L (≈ 4.98 µM) against Klebs. Pneu. MGH-2; 1.6 mg/L (≈ 2.57 µM) in the assay with Serr. Mar. IMM-16; 3.1 mg/L (≈ 4.98 µM) in the assay with Entero C. IMM-11; 0.8 mg/L (≈ 1.28 µM) against Pseudo. Aeru 28; 0.4 mg/L (≈ 0.642 µM) against Pseudo. Aeru BRK. Also, the MIC was 3.1 mg/L (≈ 4.98 µM) against Pseudo. Aeru UI-18, 6.3 mg/L (≈ 10.1 µM) with E. Coli Brig, 0.4 mg/L (≈ 0.642 µM) in the assay on E. Coli Vogel and 0.8 mg/L (≈ 1.28 µM) in the assay on Prot. Vulg. 1810.

In the case of `CCNC(=O)Nc1ccc2[nH]c(=O)c(C(=O)N[C@@H](C(=O)N[C@@H]3C(=O)N4[C@@H]3SC(C)(C)[C@@H]4C(=O)O)c3ccc(O)cc3)cc2c1` [A CH3 CH2, N-[6-[[(Ethylamino)carbonyl]amino]-1,2-dihydro-2-oxo-3-quinolinylcarbonyl]amoxicillin], the MIC against Staph Aureus UC-76 amounted to 0.4 mg/L (≈ 0.642 µM); against Klebs. Pneu. MGH-2, 6.3 mg/L (≈ 10.1 µM); in the assay on Serr. Mar. IMM-16, 6.3 mg/L (≈ 10.1 µM); in the assay with Entero C. IMM-11, 3.1 mg/L (≈ 4.98 µM); with Pseudo. Aeru 28, 0.4 mg/L (≈ 0.642 µM); in the assay on Pseudo. Aeru BRK, 1.6 mg/L (≈ 2.57 µM). For the same molecule, the MIC in the assay with Pseudo. Aeru UI-18 is 1.6 mg/L (≈ 2.57 µM); against E. Coli Brig, 3.1 mg/L (≈ 4.98 µM); with E. Coli Vogel it was 1.6 mg/L (≈ 2.57 µM); in the assay on Prot. Vulg. 1810 it was 1.6 mg/L (≈ 2.57 µM).

Consider `CC1(C)S[C@@H]2[C@H](NC(=O)[C@H](NC(=O)c3cc4cc(NC(=O)NCC(N)=O)ccc4[nH]c3=O)c3ccc(O)cc3)C(=O)N2[C@H]1C(=O)O`, for which the MIC against Staph Aureus UC-76 was 0.8 mg/L (≈ 1.23 µM); in the assay with Klebs. Pneu. MGH-2 it was 12.5 mg/L (≈ 19.2 µM); with Serr. Mar. IMM-16, 12.5 mg/L (≈ 19.2 µM); against Entero C. IMM-11 it was 6.3 mg/L (≈ 9.67 µM); against Pseudo. Aeru 28 it was 0.8 mg/L (≈ 1.23 µM); against Pseudo. Aeru BRK it was 0.8 mg/L (≈ 1.23 µM). Further, the MIC in the assay with Pseudo. Aeru UI-18 was 1.6 mg/L (≈ 2.46 µM); against E. Coli Brig, 6.3 mg/L (≈ 9.67 µM); against E. Coli Vogel, 1.6 mg/L (≈ 2.46 µM); in the assay with Prot. Vulg. 1810, 1.6 mg/L (≈ 2.46 µM).

Take `CCOC(=O)CNC(=O)Nc1ccc2[nH]c(=O)c(C(=O)N[C@@H](C(=O)N[C@@H]3C(=O)N4[C@@H]3SC(C)(C)[C@@H]4C(=O)O)c3ccc(O)cc3)cc2c1`: the MIC is 1.6 mg/L (≈ 2.35 µM) against Staph Aureus UC-76; 12.5 mg/L (≈ 18.4 µM) with Klebs. Pneu. MGH-2; 12.5 mg/L (≈ 18.4 µM) in the assay on Serr. Mar. IMM-16; 12.5 mg/L (≈ 18.4 µM) in the assay on Entero C. IMM-11; 3.1 mg/L (≈ 4.55 µM) against Pseudo. Aeru 28; 3.1 mg/L (≈ 4.55 µM) against Pseudo. Aeru BRK. Besides, the MIC with Pseudo. Aeru UI-18 stood at 3.1 mg/L (≈ 4.55 µM); with E. Coli Brig it was 12.5 mg/L (≈ 18.4 µM); in the assay with E. Coli Vogel it was 6.3 mg/L (≈ 9.26 µM); in the assay on Prot. Vulg. 1810, 6.3 mg/L (≈ 9.26 µM).
